Test results taken from ChEMBL document CHEMBL4699601, “5-Phenyl-1,3,4-oxadiazol-2(3H)-ones Are Potent Inhibitors of Notum Carboxylesterase Activity Identified by the Optimization of a Crystallographic Fragment Screening Hit” (J Med Chem, 2020).
In brackets after ≈: the same amount, converted by molar mass.

Assays:
in vitro [1] = conditions: dog, MDCK-MDR1
in vitro [2] = conditions: dog, MDCK-MDR1; remark: listed apart in the source
physchem [3] = conditions: buffer
[4] = Half life in C57BL6 mouse brain at 10 mg/kg, po measured up to 24 hrs; format: ADME, organism-based
[5] = AUC (0 to infinity) in C57BL6 mouse brain at 10 mg/kg, po measured up to 24 hrs; format: ADME, organism-based; parameters: route oral, dose 10 mg/kg, time <=24; conditions: in vivo
[6] = Unbound brain-to-plasma concentration ratio in C57BL6 mouse plasma at 10 mg/kg, po measured up to 24 hrs; format: ADME, organism-based; conditions: brain and plasma, read-out: K(p,uu,brain)
[7] = Cmax in C57BL6 mouse plasma at 10 mg/kg, po measured up to 24 hrs; format: ADME, organism-based; parameters: route oral, dose 10 mg/kg, time <=24
physchem [8] = conditions: buffer, pH 7.4
[9] = AUC (0 to infinity) in C57BL6 mouse plasma at 10 mg/kg, po measured up to 24 hrs; format: ADME, organism-based; parameters: route oral, dose 10 mg/kg, time <=24
[10] = AUC (0 to t) in C57BL6 mouse brain at 10 mg/kg, po measured up to 24 hrs; format: ADME, organism-based; conditions: in vivo
[11] = AUC (0 to t) in C57BL6 mouse plasma at 10 mg/kg, po measured up to 24 hrs; format: ADME, organism-based; parameters: route oral, dose 10 mg/kg, time <=24
[12] = Cmax in C57BL6 mouse brain at 10 mg/kg, po measured up to 24 hrs; format: ADME, organism-based; parameters: route oral, dose 10 mg/kg, time <=24
[13] = Tmax in C57BL6 mouse plasma at 10 mg/kg, po measured up to 24 hrs; format: ADME, organism-based
[14] = Half life in C57BL6 mouse plasma at 10 mg/kg, po measured up to 24 hrs; format: ADME, organism-based
[15] = Tmax in C57BL6 mouse brain at 10 mg/kg, po measured up to 24 hrs; format: ADME, organism-based

half-life [4] [h]	AUC [5] [ng·h/g]	Kp uu at 24 h [6]	Cmax [7] [ng/mL]	logD (physchem [8])	AUC(0-inf) [9] [ng·h/mL]	AUCt [10] [ng·h/g]	AUC(0-t) at 24 h [11] [ng·h/mL]	Cmax [12] [ng/g]	Tmax [13] [h]	half-life [14] [h]	Tmax [15] [h]	Structure (SMILES)	Papp A→B (in vitro [1]) [×10⁻⁶ cm/s]	Papp B→A (in vitro [2]) [×10⁻⁶ cm/s]	solubility (physchem [3]) [µM]
												Oc1nnc(-c2ccc(Cl)c(C(F)(F)F)c2)s1	45	70	22 (≈ 6.17 µg/mL)
2.3	9910	0.025	16600	2.6	63100	8870	50400	2990	0.5	3.7	0.17	Oc1nnc(-c2ccc(Cl)c(C(F)(F)F)c2)o1	34	55	710 (≈ 188 µg/mL)
